Data published in patent publication US20210179680A1, “POLYPEPTIDE, DERIVATIVES THEREOF, AND APPLICATION THEREOF IN PREPARATION OF DRUGS HAVING RESISTANCE TO PULMONARY FIBROSIS” (priority 2016, published 2021).

What was measured:
Assay type in all cases: in vivo, C57BL/6 mice
[1] = test system: mice with bleomycin-induced pulmonary fibrosis; experiment: Hydroxyproline content in lung of mice with pulmonary fibrosis; settings: S19-S21 groups, 2 mg/kg i.p.; for hydroxyproline content (μg/mg protein): left lung lobes, chloramine-T method; for content of hydroxyproline in the lungs (in words): versus bleomycin group
Method: (§1) Male C57BL/6 mice were fasted overnight, then anesthetized with 45 mg/kg sodium pentobarbital by injection intraperitoneally (i.p.), and intratracheally injected with bleomycin at a dose of 3 U/kg. The specific operation steps are as follows: cut the neck skin of the mouse with as little trauma as possible, expose the trachea with the assistance of elbow ophthalmic forceps, puncture the trachea and inject about 50 μL of bleomycin into the trachea with a microsyringe, rotate the mouse quickly and stand it upright for 5 minutes in order to make bleomycin evenly enter the left and right lobe, thereby constructing an animal model. The whole operation was performed at a surgical table at about […]. Mice in the sham operation group were intratracheally injected with an equal amount of physiological saline for injection.
(§2) Hydroxyproline accounts for 13.4% (w/w) of collagen, and extremely small amount of elastin, while it is absent in other proteins. […] Pulmonary fibrosis models were prepared according to the method described in Example 2 and administered in groups according to Table 3. The content of hydroxyproline in the lobes of left lung of the animals was measured 28 days later, and the condition of pulmonary fibrosis was evaluated.
The specific method is as follows: the mice in the animal model prepared in Example 2 was feed in a SPF animal room and treated with polypeptide according to the dosing schedule of Table 3, and all left lobes of lung of the experimental animal was taken on the 21st day after the animal model was constructed and the wet weight was recorded. Then 10% (w/w) tissue homogenate was prepared by ultrasonic homogenization using physiological saline. About 150 μL of homogenate supernatant was taken, and 500 μL of alkali hydrolysate was added (provided by Hydroxyproline alkaline hydrolysis kit of Nanjing Jiancheng Bioengineering Technology Co., Ltd.). After vortex mixing, the mixture was treated with alkaline hydrolysis for 40 min under conditions of 120° C., 0.1 Kpa. After adjusting the pH value, the volume was held constant, and the supernatant was taken after performing activated carbon treatment. The hydroxyproline was determined according to the chloramine-T method (the method of the present example refers to the instruction provided with kit, which was purchased from Nanjing Jiancheng Bioengineering Technology Co., Ltd.). […] In FIG. 10, “##” represents that P value is less than 0.01 when comparing the content of hydroxyproline in the administration group with that in the sham operation group; and “*” represents that P value is less than 0.05 and“**” represents that P value is less than 0.01 when comparing the content of hydroxyproline in the administration group with that in bleomycin group.
as §2, with “collagen, and accounts for extremely small” for “collagen, and extremely small”, “in the all lobes of” for “in the lobes of”
The specific method is as follows: the mice in the animal model prepared in Example 2 was feed in an SPF animal room and treated with polypeptide according to the dosing schedule of Table 3, and all the left lobes of lung of the experimental animal was taken on the 21st day after the animal model was constructed and the wet weight was recorded. Then 10% (w/w) tissue homogenate was prepared by ultrasonic homogenization using physiological saline. About 150 μL of homogenate supernatant was taken, and 500 μL of alkali hydrolysate was added (provided by Hydroxyproline alkaline hydrolysis kit of Nanjing Jiancheng Bioengineering Technology Co., Ltd.). After vortex mixing, the mixture was treated with alkaline hydrolysis for 40 min under conditions of 120° C., 0.1 Kpa. […]

[2] = test system: mice with bleomycin-induced pulmonary fibrosis; experiment: Lung weight index in mice with pulmonary fibrosis; settings: Table 9 groups, 2 mg/kg i.p.; after 28 days; lung weight (mg) divided by body weight (g)
Method: as §1
Pulmonary fibrosis model was prepared according to the method described in Example 2, and administered in groups according to Table 3. After 28 days, the lungs of the mice were finely stripped and weighed, and a lung weight index was obtained from dividing the lung weight (mg) by the body weight (g) of the mice. […] In FIG. 7, “##” represents that P value is less than 0.01 when the lung weight index of administration group was compared with that of the sham operation group; “*” represents that P value is less than 0.05 when the lung weight index of administration group was compared with that of the bleomycin group; “**” represents that P value is less than 0.01 when the lung weight index of administration group was compared with that of bleomycin group.
Pulmonary fibrosis models were made according to the method described in Example 2 and administered in groups according to Table 9. After 28 days, the lungs of the mice were finely stripped and weighed, and the lung weight (mg) was divided by the body weight (g) of the mice to obtain a lung weight index. […] In FIG. 13, “##” represents that P value is less than 0.01 when the lung weight index of the administration groups were compared with that of the sham operation group; “*” represents that P value is less than 0.05 and “**” represents that P value is less than 0.01 when the lung weight index of the administration groups were compared with bleomycin group.

[3] = test system: mice with bleomycin-induced pulmonary fibrosis; experiment: Pulmonary function (Flexivent) in mice with pulmonary fibrosis; settings: Table 9 groups, 2 mg/kg i.p.; for Dynamic compliance (mL/cmH2O) / Dynamic elasticity (cmH2O./mL) / Dynamic resistance (cmH2O · s/Ml) / Inspiratory capacity: 28 days later; for pulmonary function of mice with pulmonary fibrosis (in words): FIG. 17
Method: as §1
(§3) Pulmonary function is a gold indicator for clinical detection of pulmonary fibrosis in patients. The decline of lung function is generally accompanied by an aggravation of fibrosis, while the improvement of lung function generally represents the recovery of lung tissue structure. Pulmonary fibrosis models were prepared according to the method described in Example 2 and administered in groups according to Table 3. On the 28th day after the construction of the animal model, the mice were anesthetized with sodium pentobarbital (45 mg/kg, i.p.). Lung function was tested by the Flexivent Small-animal respiratory mechanics and the testing methods were TLC and SnapShots (Testing method refers to Lv X, Wang X, Li K, et al. Rupatadine Protects against Pulmonary Fibrosis by Attenuating PAF-Mediated Senescence in Rodents [J]. PloS one, 2013, 8(7): e68631).
as §3, with “lung function also generally represents” for “lung function generally represents”, “to Table 9. 28 days later, the mice” for “to Table 3. On the 28th day after the construction of the animal model, the mice”, “Senescence in Rodents[J]. PloS one,” for “Senescence in Rodents [J]. PloS one,”

Substance	hydroxyproline content (μg/mg protein) [1] [μg/mg protein]	content of hydroxyproline in the lungs (in words) [1]	Lung weight index [2]	Dynamic compliance (mL/cmH2O) [3] [mL/cmH2O]	Dynamic elasticity (cmH2O./mL) [3] [cmH2O./mL]	Dynamic resistance (cmH2O · s/Ml) [3] [cmH2O · s/Ml]	Inspiratory capacity [3] [mL]	pulmonary function of mice with pulmonary fibrosis (in words) [3]
S19: chimeric polypeptide Pep2-MR2, amino acid sequence SEQ ID NO: 19 (HLYVSPWGGHLMACFTCAKKLKKR; chimeric polypeptide Pep2-MR2 S19)	0.5637	reduce hydroxyproline content	8.675	0.33	38.67	1.143	0.692	improved
S20: chimeric polypeptide TAT-MR2, amino acid sequence SEQ ID NO: 20 (YGRKKRRQRRRGGHLMACFTCAKKLKKR; chimeric polypeptide TAT-MR2 S20)	0.7443	reduce hydroxyproline content	10.0625	0.264	52.17	1.588	0.422	improved
S21: chimeric polypeptide Antp-MR2, amino acid sequence SEQ ID NO: 21 (RQIKIWFQNRRMKWKKGGHLMACFTCAKKLKKR; chimeric polypeptide Antp-MR2 S21)	0.7488	reduce hydroxyproline content	11.2125	0.264	55.33	1.355	0.616	improved
